As usually defined, the Ki is a measure of affinity in units of concentration, obtained from inhibition or displacement.

Test [1] concerns the target T1, Cathepsin K (Homo sapiens, UniProt P43235).
T1 sequence (P43235 115-329): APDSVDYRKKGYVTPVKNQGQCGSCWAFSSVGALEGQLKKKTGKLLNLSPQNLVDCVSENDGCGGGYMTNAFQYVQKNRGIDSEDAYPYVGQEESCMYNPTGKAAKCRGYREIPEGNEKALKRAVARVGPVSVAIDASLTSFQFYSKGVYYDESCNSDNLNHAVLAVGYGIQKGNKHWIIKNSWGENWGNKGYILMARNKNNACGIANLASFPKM
Briefly: Cathepsin K inhibition assay (fluorogenic peptide substrate); selectivity ratio vs cathepsin S. In kind it is biochemical. The settings on record: ratio of cathepsin K inhibition constant to cathepsin S inhibition constant; Table II. In short, it runs like this: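 Fluorogenic kinetic assay, started with acetyl-Lys-His-Pro-Lys-aminocarbamoylcoumarin at 40 μM final, hydrolysis followed at ex 380/em 450 nm. Apparent inhibition constants from progress curves, converted to competitive inhibition constants. Selectivity expressed as isozyme inhibition constant divided by cathepsin S inhibition constant.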

Test [2] addresses Cathepsin S (Homo sapiens, UniProt P25774). Briefly: Cathepsin S inhibition assay (fluorogenic peptide substrate). In kind it is biochemical. The settings on record: Table II, compounds of Formula I; read-out: Ki Cat. S. Put shortly: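 Ki values come from nonlinear fitting of inhibited hydrolysis rates, taking free and total inhibitor concentrations as equal. Rates measured as rising fluorescence at 380/450 nm after reaction start with 50 μM final acetyl-HPVK-aminocarbamoylcoumarin.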

A value given as a limit tells only on which side of the number the result lay.

Cathepsin S, sequence (P25774 115-331, species assumed): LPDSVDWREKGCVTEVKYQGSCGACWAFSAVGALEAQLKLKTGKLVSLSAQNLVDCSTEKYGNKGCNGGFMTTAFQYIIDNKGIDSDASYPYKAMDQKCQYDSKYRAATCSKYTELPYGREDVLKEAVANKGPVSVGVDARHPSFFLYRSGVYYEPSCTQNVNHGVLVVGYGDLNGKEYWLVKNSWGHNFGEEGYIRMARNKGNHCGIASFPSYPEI

`COc1ccc(NCCNC(=O)[C@H](CCC2CCCCC2)NC(=O)c2ccc(OCc3ccccc3)cc2)cc1` [Compound 129, (S)-4-Benzyloxy-N-{3-cyclohexyl-1-[2-(4-methoxy-phenylamino)-ethylcarbamoyl]-propyl}-benzamide]: the “Selectivity for Cat. S over Cat. K” value in test [1] was “+ (+, >10)”. In addition, the inhibition constant Ki in test [2] was < 10000 nM.
With `COc1ccc(NCCNC(=O)[C@H](CCC2CCCCC2)NC(=O)c2ccc(-c3ccccc3)cc2)cc1` [Compound 130, (S)-Biphenyl-4-carboxylic acid {3-cyclohexyl-1-[2-(4-methoxy-phenylamino)-ethylcarbamoyl]-propyl}-amide], the “Selectivity for Cat. S over Cat. K” value in test [1] is on record as “+ (+, >10)”. In test [2], the Ki was < 10000 nM.
Turning to `COc1ccc(NCCNC(=O)[C@H](CCC2CCCCC2)NC(=O)c2cc3cc(Cl)ccc3[nH]2)cc1` [Compound 131, (S)-5-Chloro-1H-indole-2-carboxylic acid {3-cyclohexyl-1-[2-(4-methoxy-phenylamino)-ethylcarbamoyl]-propyl}-amide], the “Selectivity for Cat. S over Cat. K” value in test [1] is “+ (+, >10)”. Also, the Ki in test [2] is < 10000 nM.
For the compound `COc1ccc(NCCNC(=O)[C@H](CCC2CCCCC2)NC(=O)c2cc3cc(F)ccc3[nH]2)cc1` [Compound 132, (S)-5-Fluoro-1H-indole-2-carboxylic acid {3-cyclohexyl-1-[2-(4-methoxy-phenylamino)-ethylcarbamoyl]-propyl}-amide], the “Selectivity for Cat. S over Cat. K” value in test [1] is “++ (++, >100)”. Moreover, the Ki in test [2] was < 1000 nM.
On to `COc1ccc(NCCNC(=O)[C@H](CCC2CCCCC2)NC(=O)c2sc(N)nc2C)cc1` [Compound 133, (S)-2-Amino-4-methyl-thiazole-5-carboxylic acid {3-cyclohexyl-1-[2-(4-methoxy-phenylamino)-ethylcarbamoyl]-propyl}-amide], for which, in test [1], the “Selectivity for Cat. S over Cat. K” value is reported as “++ (++, >100)”. For the same compound, in test [2], the inhibitory constant (Ki) was < 1000 nM.
On to `COc1ccc(NCCNC(=O)[C@H](CCC2CCCCC2)NC(=O)c2cc3cc(Cl)ccc3o2)cc1` [Compound 134, (S)-5-Chloro-benzofuran-2-carboxylic acid {3-cyclohexyl-1-[2-(4-methoxy-phenylamino)-ethylcarbamoyl]-propyl}-amide], for which the “Selectivity for Cat. S over Cat. K” value in test [1] is recorded as “++ (++, >100)”. Further, the Ki in test [2] is < 1000 nM.
As to `CC[C@@H](C(=O)N[C@@H](CC1CCCCC1)C(=O)NCCNc1ccc(OC(F)(F)F)cc1)c1ccccc1` [Compound 135, N-{2-cyclohexyl-1-(S)-[2-(4-trifluoromethoxy-phenylamino)-ethylcarbamoyl]-ethyl}-2-(R)-phenyl-butyramide], the “Selectivity for Cat. S over Cat. K” value in test [1] was “+++ (+++, >1000)”. In test [2], the Ki was < 100 nM.
Take `COc1ccc(NCCNC(=O)[C@H](CCC2CCCCC2)NC(=O)c2ccc(-c3cccc(C(F)(F)F)c3)o2)cc1` [Compound 136, (S)-5-(3-Trifluoromethyl-phenyl)-furan-2-carboxylic acid {3-cyclohexyl-1-[2-(4-methoxy-phenylamino)-ethylcarbamoyl]-propyl}-amide]: in test [1], the “Selectivity for Cat. S over Cat. K” value is “++ (++, >100)”. Moreover, in test [2], the inhibition constant (Ki) is < 1000 nM.
With `COc1ccc(NCCNC(=O)[C@H](CCC2CCCCC2)NC(=O)c2ccc3ncsc3c2)cc1` [Compound 137, (S)-Benzothiazole-6-carboxylic acid {3-cyclohexyl-1-[2-(4-methoxy-phenylamino)-ethylcarbamoyl]-propyl}-amide], the “Selectivity for Cat. S over Cat. K” value in test [1] is “+++ (+++, >1000)”. Besides, the Ki in test [2] is < 100 nM.
As to `COc1ccc(NCCNC(=O)[C@H](CCC2CCCCC2)NC(=O)c2cccc(OC(F)(F)F)c2)cc1` [Compound 138, (S)-N-{3-Cyclohexyl-1-[2-(4-methoxy-phenylamino)-ethylcarbamoyl]-propyl}-3-trifluoromethoxy-benzamide], in test [1], the “Selectivity for Cat. S over Cat. K” value is “+++ (+++, >1000)”. For the same compound, the Ki in test [2] was < 100 nM.
`COc1ccc(NCCNC(=O)[C@H](CCC2CCCCC2)NC(=O)c2cccc(C#N)c2)cc1` [Compound 139, (S)-3-Cyano-N-{3-cyclohexyl-1-[2-(4-methoxy-phenylamino)-ethylcarbamoyl]-propyl}-benzamide]: in test [1], the “Selectivity for Cat. S over Cat. K” value was “+++ (+++, >1000)”. In addition, the Ki in test [2] is < 100 nM.
Take `COc1ccc(NCCNC(=O)[C@H](CCC2CCCCC2)NC(=O)c2ccc(C#N)cc2)cc1` [Compound 140, (S)-4-Cyano-N-{3-cyclohexyl-1-[2-(4-methoxy-phenylamino)-ethylcarbamoyl]-propyl}-benzamide]: in test [1], the “Selectivity for Cat. S over Cat. K” value is recorded as “+++ (+++, >1000)”. Also, in test [2], the inhibitory constant (Ki) is < 100 nM.
With `O=C(N[C@@H](CC1CCCCC1)C(=O)NCCNc1ccc(OC(F)(F)F)cc1)c1ccc(Oc2ccccc2)cc1` [Compound 141, N-{2-cyclohexyl-1-(S)-[2-(4-trifluoromethoxy-phenylamino)-ethylcarbamoyl]-ethyl}-4-phenoxy-benzamide], the “Selectivity for Cat. S over Cat. K” value in test [1] is recorded as “+ (+, >10)”. Besides, the Ki in test [2] was < 100 nM.
In the case of `COc1ccc(NCCNC(=O)[C@H](CCC2CCCCC2)NC(=O)c2cccc(-c3csc(C)n3)c2)cc1` [Compound 142, (S)-N-{3-Cyclohexyl-1-[2-(4-methoxy-phenylamino)-ethylcarbamoyl]-propyl}-3-(2-methyl-thiazol-4-yl)-benzamide], the “Selectivity for Cat. S over Cat. K” value in test [1] was “+++ (+++, >1000)”. In addition, the Ki in test [2] is < 100 nM.
On to `COc1ccc(NCCNC(=O)[C@H](CCC2CCCCC2)NC(=O)c2ccc(-n3cncn3)cc2)cc1` [Compound 143, (S)-N-{3-Cyclohexyl-1-[2-(4-methoxy-phenylamino)-ethylcarbamoyl]-propyl}-4-[1,2,4]triazol-1-yl-benzamide], for which the “Selectivity for Cat. S over Cat. K” value in test [1] was “++ (++, >100)”. Moreover, the inhibition constant (Ki) in test [2] was < 1000 nM.
Take `COc1ccc(NCCNC(=O)[C@H](CCC2CCCCC2)NC(=O)c2cccc(-c3ccccc3)c2)cc1` [Compound 144, (S)-Biphenyl-3-carboxylic acid {3-cyclohexyl-1-[2-(4-methoxy-phenylamino)-ethylcarbamoyl]-propyl}-amide]: the “Selectivity for Cat. S over Cat. K” value in test [1] is recorded as “+++ (+++, >1000)”. Also, the Ki in test [2] is < 1000 nM.
Take `COc1ccc(NCCNC(=O)[C@H](CC2CCCCC2)NC(=O)c2ccccc2F)cc1` [Compound 145, (S)-N-{2-Cyclohexyl-1-[2-(4-methoxy-phenylamino)-ethylcarbamoyl]-ethyl}-2-fluoro-benzamide]: the “Selectivity for Cat. S over Cat. K” value in test [1] is on record as “+++ (+++, >1000)”. For the same compound, in test [2], the Ki was < 100 nM.
On to `COc1ccc(NCCNC(=O)[C@H](CC2CCCCC2)NC(=O)c2ccc(F)c(F)c2)cc1` [Compound 146, (S)-N-{2-Cyclohexyl-1-[2-(4-methoxy-phenylamino)-ethylcarbamoyl]-ethyl}-3,4-difluoro-benzamide], for which, in test [1], the “Selectivity for Cat. S over Cat. K” value is “+++ (+++, >1000)”. For the same compound, in test [2], the inhibition constant (Ki) was < 100 nM.
As to `COc1ccc(NCCNC(=O)[C@H](CC2CCCCC2)NC(=O)c2cccc(F)c2C)cc1` [Compound 147, (S)-N-{2-Cyclohexyl-1-[2-(4-methoxy-phenylamino)-ethylcarbamoyl]-ethyl}-3-fluoro-2-methyl-benzamide], in test [1], the “Selectivity for Cat. S over Cat. K” value was “+++ (+++, >1000)”. The Ki in test [2] was < 100 nM.
`COc1ccc(NCCNC(=O)[C@H](CC2CCCCC2)NC(=O)c2cc(C)ccc2Cl)cc1` [Compound 148, (S)-2-Chloro-N-{2-cyclohexyl-1-[2-(4-methoxy-phenylamino)-ethylcarbamoyl]-ethyl}-5-methyl-benzamide]: the “Selectivity for Cat. S over Cat. K” value in test [1] was “+++ (+++, >1000)”. For the same compound, the inhibition constant (Ki) in test [2] is < 100 nM.
For the compound `COc1ccc(NCCNC(=O)[C@H](CC2CCCCC2)NC(=O)c2ccc(F)c(C(F)(F)F)c2)cc1` [Compound 149, (S)-N-{2-Cyclohexyl-1-[2-(4-methoxy-phenylamino)-ethylcarbamoyl]-ethyl}-4-fluoro-3-trifluoromethyl-benzamide], the “Selectivity for Cat. S over Cat. K” value in test [1] is “+++ (+++, >1000)”. For the same compound, the Ki in test [2] was < 100 nM.
`CCCc1ccc(C(=O)N[C@@H](CC2CCCCC2)C(=O)NCCNc2ccc(OC)cc2)cc1` [Compound 151, (S)-N-{2-Cyclohexyl-1-[2-(4-methoxy-phenylamino)-ethylcarbamoyl]-ethyl}-4-propyl-benzamide]: the “Selectivity for Cat. S over Cat. K” value in test [1] is given as “+ (+, >10)”. Moreover, the inhibition constant Ki in test [2] was < 100 nM.
Regarding `O=C(Cc1ccc(F)cc1)N[C@@H](CC1CCCCC1)C(=O)NCCNc1ccc(F)cc1` [Compound 152, 3-Cyclohexyl-2-(S)-[2-(4-fluoro-phenyl)-acetylamino]-N-[2-(4-fluoro-phenylamino)-ethyl]-propionamide], in test [1], the “Selectivity for Cat. S over Cat. K” value is on record as “++ (++, >100)”. In addition, the Ki in test [2] is < 100 nM.
For the compound `COc1ccc(NCCNC(=O)[C@H](CC2CCCCC2)NC(=O)c2ccc(OC)cc2)cc1` [Compound 153, (S)-N-{2-Cyclohexyl-1-[2-(4-methoxy-phenylamino)-ethylcarbamoyl]-ethyl}-4-methoxy-benzamide], in test [1], the “Selectivity for Cat. S over Cat. K” value is reported as “+ (+, >10)”. For the same compound, in test [2], the Ki was < 100 nM.
Take `COc1ccc(NCCNC(=O)[C@H](CC2CCCCC2)NC(=O)c2cc(C(F)(F)F)ccc2F)cc1` [Compound 154, (S)-N-{2-Cyclohexyl-1-[2-(4-methoxy-phenylamino)-ethylcarbamoyl]-ethyl}-2-fluoro-5-trifluoromethyl-benzamide]: in test [1], the “Selectivity for Cat. S over Cat. K” value was “++ (++, >100)”. Moreover, in test [2], the inhibitory constant (Ki) is < 100 nM.

The record behind these values is patent US7109243B2 (IRM LLC, priority 2003, dated 2006).
